Test results as given in patent US20240034785A1, “RXR-ALPHA BINDERS AND RXR-ALPHA/PLK1 MODULATORS” (NUCMITO PHARMACEUTICALS CO. LTD., priority 2020, published 2024).

Legend:
[1] = molecular target: T1, p-RXRα and PLK1 at the centrosome (Homo sapiens, UniProt P19793); assay: In situ proximity ligation assay (PLA) in HepG2 cells; format: cell-based; conditions: RO-3306 10 μM for 30 min or compound A1 10 μM for 2 hr (FIG. 56)
T1 construct: endogenous in cells; host or cells: HepG2
T1 sequence (P19793 1-462): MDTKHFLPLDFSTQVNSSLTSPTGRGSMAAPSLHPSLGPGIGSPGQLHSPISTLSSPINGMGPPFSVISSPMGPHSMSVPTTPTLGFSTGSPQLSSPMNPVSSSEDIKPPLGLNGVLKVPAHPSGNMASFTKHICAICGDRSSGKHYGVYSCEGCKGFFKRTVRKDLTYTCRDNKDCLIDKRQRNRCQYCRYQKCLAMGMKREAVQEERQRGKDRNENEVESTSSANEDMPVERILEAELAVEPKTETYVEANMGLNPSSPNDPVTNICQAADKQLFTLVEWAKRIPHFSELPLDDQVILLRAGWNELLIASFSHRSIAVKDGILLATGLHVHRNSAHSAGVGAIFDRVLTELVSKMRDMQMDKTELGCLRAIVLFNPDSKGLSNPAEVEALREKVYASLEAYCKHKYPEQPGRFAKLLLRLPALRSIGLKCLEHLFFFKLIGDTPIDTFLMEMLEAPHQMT
Description: An in situ proximity ligation assay (PLA) was performed in HeLa cells and HepG2 by using a DOULINK™ assay kit. Briefly, cells mounted on glass slides were fixed with methanol at −20° C. for 5 min, then permeabilized with 0.05% Triton X-100 in a PBS buffer for 8 min at 4° C., and blocked with a blocking solution for 60 min at 37° C., followed by incubation with primary antibodies for 60 min at 37° C. The slides were then washed three times with wash buffer A, and PLA labeled secondary antibodies (anti-mouse, minus; anti-rabbit, plus) were added and incubated for 60 min at 37° C. The slides were washed two times with wash buffer A and a ligation solution including a ligase was added for 30 min at 37° C. After ligation, the slides were washed two times with wash buffer A and followed by incubation with an amplification buffer including a polymerase for 100 min at 37° C. After amplification, the slides were washed two times with 1×wash buffer B and one time in 0.01×wash buffer B. Finally, the slides were mounted using a minimal volume of a mounting medium with DAPI and analyzed in a confocal microscope after 15 min.

[2] = system: primary human hepatocellular carcinoma cells; assay: Western blot analysis of primary hepatic carcinoma cells from a liver cancer patient; format: cell-based; conditions: 10 μM for 48 hr (FIG. 63)
Description: Tissue samples were obtained by surgical resection and processed within 2 hr. Chen et al., Oncotarget 2016, 7, 17047-59. Samples were washed with 1×SC-2 solution, minced with fine sterile scissors and scalpel into fragments of ˜1 mm^3. They were then treated with pre-warmed collagenase type IV for 30 min at 37° C. and filtered through a 70 μm cell strainer. The pellet containing the liver cells was resuspended in ice cold SC-2 solution and triple centrifugation at 1,000 g for 10 min at 4° C. was performed in order to separate the purified hepatocyte population (pellet) from non-parenchymal cells (supernatant). The pellet contained the purified hepatocytes. The resolved single-cell suspensions were then re-suspended in a primary cell culture medium (DMEM, 20% FBS, 2 mM glutamine, 1 mM pyruvate, 10 mM HEPES, 100 units/mL penicillin/streptomycin, 0.1 mg/mL gentamicin, and […] fungizone), plated in 6-well plates coated with 5 μg/cm^2 rat tail collagen type I and maintained in culture at 37° C. and 5% CO2.

[3] = system: HepG2 xenografts; assay: HepG2 xenografts in nude mice; format: in vivo, mouse
Description: FIGS. 69 and 70 show the analysis of nude mice injected with HepG2 cells, where the mice were treated with compound A1 (80 mg/kg) once every two days. The tumor volume was monitored and recorded. Tumors excised at day 14 were shown in FIG. 69 and weight in FIG. 70 (±SEM; **p<0.01).
BALB/c nude mice (7-8 weeks old) were injected subcutaneously with 100 μL HepG2 cells (2×10^6). For treatment, mice were administered with compound A1 (80 mg/kg) diluted in corn oil once every two days. Body weights and tumor sizes were measured every 2 days with tumor volumes (V) calculated by the formula of (width)^2×length/2. The mice were sacrificed after 14 days of treatment and tumors were removed for additional assessments. Isolation and culture of mouse primary liver tumor cells
Livers or transplanted tumor from mouse were fixed in 4% neutral buffered formalin phosphate (pH 7.0) for periods not exceeding 24 hr and were subsequently embedded in paraffin. They were sliced into 4-μm sections for H&E (hematoxylin and eosin) staining, immunofluorescence and for immunohistochemistry. To examine hepatocytes, H&E stained-liver sections were analyzed with an image analysis system. For immunostaining, liver sections or tumor sections were incubated with an anti-γ-tubulin (1:200 dilution), anti-pS10-H3 (1:200 dilution), anti-γ-H2AX (1:200 dilution), or cleaved-caspase-3 (1:100 dilution) antibody. Positive cells or areas were counted and measured, respectively, for at least 10 fields.

[4] = system: HepG2 cells; assay: Western blot analysis of liver cancer HepG2 cells; format: cell-based, human; conditions: indicated concentration for 12 hr (FIG. 61)
[5] = system: QSG-7701 cells; assay: Western blot analysis of QSG-7701 normal liver cells; format: cell-based, human; conditions: 12 hr (FIG. 61)

Structure (SMILES): COc1ccc(CC(=O)N/N=C/c2c(O)ccc3ccccc23)cc1 [Compound A1, (E)-N′-((2-hydroxynaphthalen-1-yl)methylene)-2-(4-methoxyphenyl)acetohydrazide]
- in situ interaction between p-RXRα and PLK1 at the centrosome (PLA) [1]: inhibited the in situ interaction
- induction of mitotic arrest and apoptosis [2]: observed
- effects of compound A1 in normal liver tissues ([3]; normal liver tissues of HepG2 xenograft mice (FIG. 71)): not observed in normal liver tissues
- mitotic arrest and DNA damage response in normal tissues ([3]; normal tissues of kidney, intestine, spleen, and heart): no effect
- signs of overt toxicities ([3]; nude mice, 80 mg/kg once every two days, 14 days): without any signs of overt toxicities
- growth of HepG2 tumor ([3]; nude mice, subcutaneous HepG2 xenografts, 80 mg/kg in corn oil once every two days, 14 days (FIGS. 69 and 70)): strongly inhibited the growth of HepG2 tumor
- mitotic arrest, chromosome aberrations, DNA damage response, and caspase 3 activation in tumor cells ([3]; tumor specimens from HepG2 xenograft (FIG. 71)): induction of mitotic arrest, chromosome aberrations, DNA damage response, and caspase 3 activation in tumor cells
- effect in p-RXRα-positive HepG2 liver cancer cells [4]: potent effect
- effect in p-RXRα-negative noncancerous QSG-7701 cells [5]: but not p-RXRα-negative noncancerous QSG-7701 cells
